Data reported in patent US20170197985A1, “SODIUM (2R,5S,13AR)-7,9-DIOXO-10-((2,4,6-TRIFLUOROBENZYL)CARBAMOYL)-2,3,4,5,7,9,13,13A-OCTAHYDRO-2,5-METHANOPYRIDO[1',2':4,5]PYRAZINO[2,1-B][1,3]OXAZEPIN-8-OLATE” (Gilead Sciences, Inc., priority 2014, published 2017).

Legend:
[1] = Bioavailability after a single oral tablet in beagle dogs (plasma LC/MS/MS, non-compartmental PK); type: in vivo; details: dog, male beagle dogs, fasted, pentagastrin pre-treated, single 25 mg strength tablet (dry granulation, 30% active); for bioavailability: read-out: % F (oral bioavailability)
Excerpt: The bioavailability of sodium (2R,5S,13aR)-7,9-dioxo-10-((2,4,6-trifluorobenzyl)carbamoyl)-2,3,4,5,7,9,13,13a-octahydro-2,5-methanopyrido[1′,2′:4,5]pyrazino[2,1-b][1,3]oxazepin-8-olate (Formula II) Form I was compared to the bioavailability of (2R,5S,13aR)-8-hydroxy-7,9-dioxo-N-(2,4,6-trifluorobenzyl)-2,3,4,5,7,9,13,13a-octahydro-2,5-methanopyrido[1′,2′:4,5]pyrazino[2,1-b][1,3]oxazepine-10-carboxamide (Formula I) Form III.
Each dosing group consisted of 6 male, non-naïve purebred beagle dogs. At dosing, the animals weighed between 10 to 13 kg. The animals were fasted overnight prior to dose administration and up to 4 hr after dosing. Each subject was pre-treated with pentagastrin (6 μg/kg) and dosed 30 minutes later with a single 25 mg strength tablet of Formula II Form I or Formula I Form III. Each subject was given 10 mL of water to aid in swallowing.
Serial venous blood samples (approximately 1 mL each) were taken from each animal at 0, 0.250, 0.483, 0.583, 0.750, 1.00, 1.50, 2.00, 4.00, 8.00, 12.0, and 24.0 hours after dosing. The blood samples were collected into Vacutainer™ tubes containing EDTA-K2 as the anti-coagulant and were immediately placed on wet ice pending centrifugation for plasma. An LC/MS/MS method was used to measure the concentration of the test compound in plasma. An aliquot of 100 μL of each plasma sample was added to a clean 96 well plate, and 400 μL of cold acetonitrile/internal standard solution (ACN)/(ISTD) was added. After protein precipitation, an aliquot of 110 μL of the supernatant was transferred to a clean 96-well plate and diluted with 300 μL of water. An aliquot of 25 μL of the above solution was injected into a TSQ Quantum Ultra LC/MS/MS system utilizing a Hypersil Gold C18 HPLC column (50×3.0 mm, 5 μm; Thermo-Hypersil Part #25105-053030). An Agilent 1200 series binary pump (P/N G1312A Bin Pump) was used for elution and separation, and an HTS Pal autosampler (LEAP Technologies, Carrboro, N.C.) was used for sample injection. A TSQ Quantum Ultra triple quadrupole mass spectrometer was utilized in selective reaction monitoring mode (Thermo Finnigan, San Jose, Calif.). Liquid chromatography was performed using two mobile phases: mobile phase A contained 1% acetonitrile in 2.5 mM ammonium formate aqueous solution with pH of 3.0, and mobile phase B contained 90% acetonitrile in 10 mM ammonium formate with pH of 4.6. Non-compartmental pharmacokinetic analysis was performed on the plasma concentration-time data. The resulting data are shown in Table 3: F (%) refers to oral bioavailability; AUC refers to area under the curve and is a measure of total plasma exposure of the indicated compound; Cmax refers to the peak plasma concentration of the compound after administration.

HIV = details: as discussed in co-pending U.S. Ser. No. 14/133,855 and PCT US2013/076367; cited from earlier work
[2] = Stability on storage under accelerated conditions (% AN, % LS); type: physicochemical
Experimental: The stability of sodium (2R,5S,13aR)-7,9-dioxo-10-((2,4,6-trifluorobenzyl)carbamoyl)-2,3,4,5,7,9,13,13a-octahydro-2,5-methanopyrido[1′,2′:4,5]pyrazino[2,1-b][1,3]oxazepin-8-olate Form I was tested. […] In Table 5, AN refers to area normalization and is the relative peak area of the active with respect to other impurities and components contained in the sample. LS refers to labile strength and is the amount of active present relative to the theoretical amount.

O=C(NCc1c(F)cc(F)cc1F)c1cn2c(c(O)c1=O)C(=O)N1[C@H]3CC[C@H](C3)O[C@@H]1C2 [Formula I Form III, (2R,5S,13aR)-8-hydroxy-7,9-dioxo-N-(2,4,6-trifluorobenzyl)-2,3,4,5,7,9,13,13a-octahydro-2,5-methanopyrido[1′,2′:4,5]pyrazino[2,1-b][1,3]oxazepine-10-carboxamide]
AUC(0-t) [1]: 27 ± 13 µM·h
Cmax [1]: 6 ± 2 µM
bioavailability [1]: 10 ± 6%

O=C(NCc1c(F)cc(F)cc1F)c1cn2c(c(O)c1=O)C(=O)N1[C@H]3CC[C@H](C3)O[C@@H]1C2 [Formula I, (2R,5S,13aR)-8-hydroxy-7,9-dioxo-N-(2,4,6-trifluorobenzyl)-2,3,4,5,7,9,13,13a-octahydro-2,5-methanopyrido[1′,2′:4,5]pyrazino[2,1-b][1,3]oxazepine-10-carboxamide]
anti-viral activity (in words) (HIV): demonstrates anti-viral activity

O=C(NCc1c(F)cc(F)cc1F)c1cn2c(c([O-])c1=O)C(=O)N1[C@H]3CC[C@H](C3)O[C@@H]1C2.[Na+] [Formula II Form I, sodium (2R,5S,13aR)-7,9-dioxo-10-((2,4,6-trifluorobenzyl)carbamoyl)-2,3,4,5,7,9,13,13a-octahydro-2,5-methanopyrido[1′,2′:4,5]pyrazino[2,1-b][1,3]oxazepin-8-olate]
% AN (area normalization) ([2]; 25° C./60% RH (open), 1 week): 95.0 ± 0.2%
% LS (labile strength) ([2]; 25° C./60% RH (open), 1 week): 104.8 ± 0.1%
% AN (area normalization) ([2]; 25° C./60% RH (open), 2 weeks): 94.4 ± 0.1%
% LS (labile strength) ([2]; 25° C./60% RH (open), 2 weeks): 101.6 ± 0.1%
% AN (area normalization) ([2]; 25° C./60% RH (open), 4 weeks): 94.4 ± 0.0%
% LS (labile strength) ([2]; 25° C./60% RH (open), 4 weeks): 103.0 ± 0.8%
% AN (area normalization) ([2]; 40° C. (closed), 1 week): 95.2 ± 0.3%
% LS (labile strength) ([2]; 40° C. (closed), 1 week): 108.0 ± 0.2%
% AN (area normalization) ([2]; 40° C. (closed), 2 weeks): 94.4 ± 0.1%
% LS (labile strength) ([2]; 40° C. (closed), 2 weeks): 102.4 ± 0.1%
% AN (area normalization) ([2]; 40° C. (closed), 4 weeks): 94.4 ± 0.0%
% LS (labile strength) ([2]; 40° C. (closed), 4 weeks): 97.0 ± 0.0%
% AN (area normalization) ([2]; 40° C./75% RH (open), 1 week): 94.9 ± 0.1%
% LS (labile strength) ([2]; 40° C./75% RH (open), 1 week): 103.3 ± 6.9%
% AN (area normalization) ([2]; 40° C./75% RH (open), 2 weeks): 94.4 ± 0.0%
% LS (labile strength) ([2]; 40° C./75% RH (open), 2 weeks): 108.5 ± 0.4%
% AN (area normalization) ([2]; 40° C./75% RH (open), 4 weeks): 94.4 ± 0.0%
% LS (labile strength) ([2]; 40° C./75% RH (open), 4 weeks): 102.9 ± 0.1%
% AN (area normalization) ([2]; Starting material, 0 weeks): 94.4 ± 0.1%
% LS (labile strength) ([2]; Starting material, 0 weeks): 99.8 ± 0.1%
Stability (in words) ([2]; after four weeks of storage under accelerated conditions): stable
AUC(0-t) [1]: 71 ± 16 µM·h
Cmax [1]: 13 ± 1 µM
bioavailability [1]: 28 ± 7%
